Reference: US20230257710A1, “NATURAL KILLER CELL HAVING CONTROLLED ONCOLOGY-RELEATED GENE EXPRESSION, AND USE THEREOF” (SUNGKWANG MEDICAL FOUNDATION, priority 2020, published 2023)

Test system: A2780cis xenograft
Assay type: in vivo, NSG mice
Description: The efficacy was evaluated by confirming the growth inhibitory effect of natural killer cells (pNK) cultured by the culture method according to one aspect as an immuno-anticancer agent. An A2780cis xenograft mouse model was prepared by subcutaneously injecting the […] ovarian cancer cell line A2780cis into the fat pad of 7-week-old NSG mice in an amount of 2×10^6 (cells). After ovarian cancer cell lines were injected, mice with tumors were randomly grouped on day 3: a group treated with intraperitoneal injection of cisplatin at 1 mg/kg, once/week; a group treated with intravenous injected of natural killer cells according to one aspect in the number of 1×10^7 (cells), 2 times/week; and a control group treated with the injection of PBS (FIG. 8). After injection of the ovarian cancer cell line, tumor size and body weight were measured daily.

N.N.[Cl][Pt][Cl] [cisplatin]
cancer cell growth inhibitory effect (compared to the control group (PBS), A2780cis xenograft NSG mice): about 55%
change in body weight (mouse, in vivo): no significant change in body weight
